Where two headings read alike, the source gives them in different places.
How the values were obtained:
Format in all cases: cell-based
[1] = test system: SARS-CoV-2 (USA-WA1/2020 variant); test: Virus CPE assay in Vero-E6 cells, USA-WA1/2020; conditions: for EC50: USA-WA1/2020, Vero-E6, 4 days, read-out: EC50, inhibition of CPE; for inhibition at 3 µM: single treatment at 3 μM
[2] = test system: SARS-CoV-2 B.1.1.7/Alpha variant; test: Virus CPE assay in Vero-E6 cells, B.1.1.7; conditions: Severe acute respiratory syndrome coronavirus 2, Vero C1008, 96 h; B.1.1.7, Vero-E6, 4 days; read-out: EC50, inhibition of CPE
[3] = test system: SARS-CoV-2 B.1.351/Beta variant; test: Virus CPE assay in Vero-E6 cells, B.1.351; conditions: Severe acute respiratory syndrome coronavirus 2, Vero C1008, 96 h; B.1.351, Vero-E6, 4 days; read-out: EC50, inhibition of CPE
[4] = Severe acute respiratory syndrome coronavirus 2, Vero C1008, 96 h
[5] = Severe acute respiratory syndrome coronavirus 2, Vero C1008, 5 experiments of 8-fold replicates, read-out: percent of wells with CPE inhibited

SMILES	EC50 [1, 4] [µM]	inhibition at 3 µM [1, 5] [%]	EC50 [2] [µM]	EC50 [3] [µM]	EC50 [1] [µM]	inhibition at 1 µM ([1]; Severe acute respiratory syndrome coronavirus 2, Vero C1008, single treatment at 1 μM, 5 experiments of 8-fold replicates, read-out: percent of wells with CPE inhibited) [%]
COc1cccc2[nH]c(C(=O)N[C@@H](CC(C)C)C(=O)N[C@@H](C[C@@H]3CCNC3=O)C(=O)COC(=O)c3c(Cl)cccc3Cl)cc12 [AP-8-001, reference compound]	1.2 ± 0.3					
O=C(CN1C(=O)[C@@H](NC(=O)c2ccccc2)COc2ccccc21)N[C@@H](C[C@@H]1CCNC1=O)C(=O)COC(=O)c1c(Cl)cccc1Cl [AP-8-011, (S)-3-(2-((S)-3-benzamido-4-oxo-3,4-dihydrobenzo[b][1,4]oxazepin-5(2H)-yl)acetamido)-2-oxo-4-((S)-2-oxopyrrolidin-3-yl)butyl 2,6-dichlorobenzoate]	14.1 ± 3.6					
O=C(CN1C(=O)[C@@H](NC(=O)OCc2ccccc2)COc2ccccc21)N[C@@H](C[C@@H]1CCNC1=O)C(=O)COC(=O)c1c(Cl)cccc1Cl [AP-8-013, (S)-3-(2-((S)-3-(benzyloxycarbonylamino)-4-oxo-3,4-dihydrobenzo[b][1,4]oxazepin-5(2H)-yl)acetamido)-2-oxo-4-((S)-2-oxopyrrolidin-3-yl)butyl 2,6-dichlorobenzoate]	12.8 ± 1.6	7.5	10.6 ± 1	5.5 ± 0.4		
CC(C)C[C@H](NC(=O)OCc1ccccc1)C(=O)N[C@@H](C[C@@H]1CCNC1=O)C(O)S(=O)(=O)O (stereo partly drawn) [GC-376]	3.4 ± 0.9		1.3 ± 0.6		3.3 ± 1.2	
CCC(CC)COC(=O)[C@H](C)N[P@](=O)(OC[C@H]1O[C@@](C#N)(c2ccc3c(N)ncnn23)[C@H](O)[C@@H]1O)Oc1ccccc1 [Remdesivir]	3.1 ± 0.7	15 ± 9.2				2.5 ± 2.5

From patent US20250092029A1 (THE WISTAR INSTITUTE OF ANATOMY AND BIOLOGY, priority 2022, published 2025)
